Data taken from paper PMC5019375, “Characterization of Potent SMAC Mimetics that Sensitize Cancer Cells to TNF Family-Induced Apoptosis” (PLoS ONE, 2016).
Several values for one entry are separate records, joined by “and”; a condition that tells them apart may be missing. Identical values can stand only once.

Columns and labels:
[1] = system: PC-3 prostate cancer cells; assay: Cytotoxicity assay, sensitization to TNF (CellTiter-Glo); assay type: cell-based, human; design: key to TNF EC50: IN: EC50 too weak to be determined; conditions: for TNF EC50 / EC50: PC-3 cells, 10 nM TNF, 24 h, cell viability; for EC50: read-out: TNF EC50
Protocol: (§1) Cellular cytotoxicity experiments were conducted in white 96-well flat bottom plates (Greiner Bio-One #655074). PC-3 prostate cancer cells were seeded into microtiter wells in 90 μL RPMI medium with 10% fetal calf serum and antibiotics at 5,000 cells per well, and then incubated overnight at 37°C with 5% CO2/95% air. The next day, compounds diluted into the same culture medium and added in 10 μL aliquots to achieve various final concentrations, maintaining a uniform total volume per well. Either TNF (at 10 nM final) or LT-α (at ~90 pM final) resuspended in 10 μL of RPMI with 10% fetal calf serum and antibiotics was added to wells or an equal volume of medium was applied for the control well. The plates were then further incubated for 24 h. Subsequently, cell viability was assessed by the addition of 25 μL per well of Cell-Titer-Glo reagent (Promega, Inc). Plates were read using a Luminoskan Ascent luminometer.
(§2) The cellular activity of cIAP1 and cIAP2 inhibitors was evaluated through experiments where cytotoxicity of a human prostate tumor cell line (PC-3) was assessed in the presence or absence of cytokines TNF and LT-α. The experimental approach we used was to provide TNF or LT-α at a fixed concentration, which by itself was non-cytotoxic, then titrate SMAC mimetics into the cell cultures. […] The compound series described in this work has been tested against a broad range of cell lines (data not shown and [23]) and single agent toxicity was only observed for SKOV3 ovarian tumor cells. This agrees with the findings of Varfolomeev, Vince and Lalaoui, respectively.

[2] = system: PC-3 prostate cancer cells; assay: Cytotoxicity assay, sensitization to LT-α (CellTiter-Glo); assay type: cell-based, human; design: key to LT-α EC50: IN: EC50 too weak to be determined; conditions: for LT-α EC50 / EC50: PC-3 cells, ~90 pM LT-α, 24 h, cell viability; for EC50: read-out: LT-α EC50
Protocol: as §1, §2

[3] = molecular target: cIAP1-BIR3 (Homo sapiens, UniProt Q13490); assay: FP competition assay, displacement of SMAC-rhodamine; conditions: cIAP1 BIR3 Ki, 25 mM Hepes pH 7.5, 1 mM TCEP, 0.005% Tween 20, 20 nM SMAC-rhodamine, 40 mM β-glycerol phosphate, ~50 nM protein; Ki calculated from IC50
cIAP1-BIR3, sequence (Q13490 257-356): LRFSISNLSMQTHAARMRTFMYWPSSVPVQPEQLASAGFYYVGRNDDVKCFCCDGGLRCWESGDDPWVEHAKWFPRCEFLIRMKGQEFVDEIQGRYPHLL
Protocol: (§4) Solutions for assessing SMAC-rhodamine binding to various BIR domains were empirically optimized. […] For cIAP1-BIR3, the assay buffer was 25 mM Hepes [pH 7.5] containing 40 mM β-glycerol phosphate, 1 mM TCEP, and 0.005% Tween 20, typically with 20 nM SMAC-rhodamine. For cIAP1-BIR2, cIAP2-BIR2 and cIAP2-BIR3, assays were performed in 25 mM Hepes [pH 7.5] containing 1 mM TCEP and 0.005% Tween 20, typically with 20 nM SMAC-rhodamine.
(§5) For cIAP1-BIR2, assays were conducted using 25 mM Hepes [pH 7.5] containing 1 mM TCEP, 0.005% Tween 20, ~1 μM cIAP1-BIR2, and 20 nM SMAC-rhodamine. For cIAP1-BIR3, assays were performed using the same buffered solution, except 40 mM β-glycerol phosphate was added and the cIAP1-BIR3 concentration was reduced to 50 nM. For cIAP2-BIR2, assays included a buffer containing 25 mM Hepes [pH 7.5] containing 1 mM TCEP, 0.005% Tween 20, 1 μM cIAP2-BIR2, and 20 nM SMAC-rhodamine. […] IC50 values were determined with a nonlinear fit using Prism software. Ki values were determined from the IC50 values using an online program developed by Nikolovska-Coleska et al. [26].

[4] = molecular target: cIAP1-BIR2 (Homo sapiens, UniProt Q13490); assay: as above
cIAP1-BIR2, sequence (Q13490 144-260): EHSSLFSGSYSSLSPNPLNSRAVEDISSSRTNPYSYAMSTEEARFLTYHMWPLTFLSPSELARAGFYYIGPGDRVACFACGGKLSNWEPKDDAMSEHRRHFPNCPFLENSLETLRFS
Protocol: as §4, §5

[5] = molecular target: cIAP2-BIR3 (Homo sapiens, UniProt Q13489); assay: as above
cIAP2-BIR3, sequence (Q13489 243-333): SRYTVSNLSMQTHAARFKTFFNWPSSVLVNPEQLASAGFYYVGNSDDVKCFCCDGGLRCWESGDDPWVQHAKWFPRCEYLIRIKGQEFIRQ
Protocol: as §4, §5

[6] = molecular target: cIAP2-BIR2 (Homo sapiens, UniProt Q13489); assay: as above
cIAP2-BIR2, sequence (Q13489 129-246): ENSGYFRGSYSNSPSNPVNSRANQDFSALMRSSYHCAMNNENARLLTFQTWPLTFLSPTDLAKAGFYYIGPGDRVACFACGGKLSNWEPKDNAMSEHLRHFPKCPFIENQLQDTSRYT
Protocol: as §4, §5

[7] = molecular target: T1, myc-RIP1 binding to GST-cIAP1-BIR3 (Homo sapiens, UniProt Q13490); assay: RIP1 binding, GST pull-down from HEK293T lysates; conditions: various concentrations, overnight, 4°C
T1 construct: purified GST-fusion proteins (GST-cIAP1-BIR3 or GST-cIAP2-BIR3) were added; made in house; host or cells: GST fusion: bacteria (as for the other recombinant proteins); myc-RIP1: transfected HEK293T cell lysate
T1 sequence (Q13490 257-356 limits assumed): as the sequence (Q13490 257-356) above
Protocol: (§3) To assess the impact of compounds on cIAP1 and cIAP2 binding to RIP1, 700,000 HEK293T cells were seeded into 100 mm cell-culture plates and transfected the next day with 6 μg of plasmid DNA, myc-RIP1 in pRK5 vector. […] Lysates from 6 plates were pooled and divided into equal 300 μL aliquots, into which 7 μg of purified GST-fusion proteins (GST-cIAP1-BIR3 or GST-cIAP2-BIR3) were added in the presence of various concentrations of SMAC mimetic compounds. The tubes were rocked overnight at 4°C, and the next day 20 μL of glutathione-Sepharose beads (GE Healthcare) was added to each tube and the tubes were rocked for an additional 2 h at 4°C. The GST-fusion proteins were recovered by centrifugation at 2,300 g for 30 sec, then washed 3-times in NP-40 lysis buffer. Finally, 20 μL of 2X Laemmli buffer was added and the samples were boiled, then fractionated by SDS-PAGE, followed by immunoblotting using anti-myc antibody (Roche) for detection of myc-RIP1 and anti-GST antibody (BD Biosciences, La Jolla, CA) for detection of GST-fusion proteins.

[8] = molecular target: T2, myc-RIP1 binding to GST-cIAP2-BIR3 (Homo sapiens, UniProt Q13489); assay: RIP1 binding, GST pull-down from HEK293T lysates; conditions: various concentrations, overnight, 4°C
T2 construct: purified GST-fusion proteins (GST-cIAP1-BIR3 or GST-cIAP2-BIR3) were added; made in house; host or cells: GST fusion: bacteria (as for the other recombinant proteins); myc-RIP1: transfected HEK293T cell lysate
T2 sequence (Q13489 243-333 limits assumed): as the sequence (Q13489 243-333) above
Protocol: as §3

[9] = molecular target: T3, cIAP1 protein in MDA-MB-231 cells (Homo sapiens, UniProt Q13490); assay: Immunoblotting of cIAP1 protein levels in cells; assay type: cell-based; conditions: 5 μM, 6 h, immunoblot
T3 construct: MDA-MB-231 cells contain abundant levels of cIAP1 protein but little cIAP2 protein; endogenous in cells; host or cells: MDA-MB-231
T3 sequence (Q13490 whole entry): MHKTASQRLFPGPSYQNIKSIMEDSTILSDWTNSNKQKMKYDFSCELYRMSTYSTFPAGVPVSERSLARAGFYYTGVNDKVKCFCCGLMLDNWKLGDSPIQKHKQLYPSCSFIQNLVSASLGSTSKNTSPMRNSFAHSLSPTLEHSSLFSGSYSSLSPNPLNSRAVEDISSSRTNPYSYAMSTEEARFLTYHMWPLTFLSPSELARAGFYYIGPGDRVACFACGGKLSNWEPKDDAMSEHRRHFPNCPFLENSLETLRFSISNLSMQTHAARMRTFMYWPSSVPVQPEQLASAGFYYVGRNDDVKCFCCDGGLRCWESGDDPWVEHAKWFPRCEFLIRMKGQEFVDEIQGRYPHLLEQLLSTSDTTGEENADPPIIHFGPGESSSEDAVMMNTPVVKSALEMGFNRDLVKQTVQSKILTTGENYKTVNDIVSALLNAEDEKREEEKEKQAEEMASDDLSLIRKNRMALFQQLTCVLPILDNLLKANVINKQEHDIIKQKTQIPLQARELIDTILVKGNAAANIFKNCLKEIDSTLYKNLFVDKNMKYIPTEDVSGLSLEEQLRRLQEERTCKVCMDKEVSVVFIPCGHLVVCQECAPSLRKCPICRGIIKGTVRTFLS
Protocol: To assess the impact of compounds on cIAP1 protein levels in cells, 40,000 MDA-MB-231 cells were cultured in complete medium (RPMI with 10% fetal calf serum and antibiotics) overnight at 37°C in 5% CO2/95% air. The following day compounds at 5 μM (or an equivalent volume of diluent control) were added. After 6 h, cells were recovered by centrifugation, lysed in SDS-sample buffer, and equivolume aliquots of lysates were analyzed by SDS-PAGE/Immunoblotting using antibodies specific for human/mouse cIAP (pan) Mab (clone 315301; R&D Systems #MAB3400) and β-actin (Sigma-Aldrich #A5441) by an enhanced chemiluminescence (ECL) method, essentially as described.

| SMILES | TNF EC50 [1] | cytotoxicity against PC-3 cells with TNF ([1]; in words) | LT-α EC50 [2] | cytotoxicity against PC-3 cells with LT-α ([2]; in words) | Ki [3] | Ki [4] | Ki [5] | Ki [6] | EC50 [1] | EC50 [2] | inhibition of myc-RIP1 binding to GST-cIAP1-BIR3 [7] | inhibition of myc-RIP1 binding to GST-cIAP2-BIR3 [8] | effect on cIAP1 protein levels in cells [9] |
| --- | --- | --- | --- | --- | --- | --- | --- | --- | --- | --- | --- | --- | --- |
| CN[C@@H](C)C(=O)N[C@H](C(=O)N[C@@H](C)C(=O)NNc1ccccc1)C(C)C [compound 23] | IN^b | essentially no cytotoxicity | IN^b | essentially no cytotoxicity | 6130 nM and 6100 nM | 7390 nM | 8290 nM | 13600 nM |  |  |  |  |  |
| CN[C@@H](C)C(=O)N[C@H](C(=O)N1CCC[C@@H]1C(=O)N[C@H]1CCOc2ccccc21)C(C)C [compound 37, reference compound] |  |  |  |  | 20 nM |  |  |  | 30 nM | 10 nM | inhibited binding | inhibited binding |  |
| CN[C@@H](C)C(=O)N[C@H](C(=O)N1CSC[C@@H]1C(=O)NC1CCCc2ccccc21)C(C)C (stereo partly shown) [compound 38, reference compound] |  |  |  |  | 30 nM |  |  |  | 60 nM | 20 nM | inhibited binding | inhibited binding | caused reductions of cIAP1 protein levels in cells |
| CN[C@@H](C)C(=O)N[C@@H](C(=O)N1CCC[C@@H]1C(=O)NNc1cccc(F)c1)C1CCCCC1 [compound 40, reference compound] | IN^b |  | IN^b |  | > 92400 nM |  |  |  |  |  | did not | did not | did not |
